Earlier results as cited in patent US11913924B2, “Ion generation using modified wetted porous materials” (Purdue Research Foundation, priority 2011, dated 2024).
Read-outs that look alike come from different tables or passages of the source.

Columns and labels:
[1] = in vivo
[2] = therapeutic windows listed in Table 6

Compound	Therapeutic range [2]	also measured
CN1C(=O)CC[C@H]1c1cccnc1 [cotinine]		half-life [1]: about 16 hours
CCN(CC)CCNC(=O)c1c(C)[nH]c(/C=C2\C(=O)Nc3ccc(F)cc32)c1C [sunitinib]	20 to 200 ng/mL	
CN1CCCC1c1cccnc1 (stereo not shown) [nicotine]		half-life [1]: about 2 hours
CCN(CC)CC(=O)Nc1c(C)cccc1C [lidocaine]	1,000-6,000 ng mL^−1	
CN(C)CCC=C1c2ccccc2CCc2ccccc21 [amitriptyline]	50 to 200 ng/mL	
O=P1(N(CCCl)CCCl)NCCCO1 (stereo not shown) [Cyclophosphamide, cyclophosphamide]		Therapeutic range (plasma concentrations, Regenthal et al., J. Clin. Monitor Comp. 1999): 10000 to 25000 ng/mL
CN(C)CCCC1(c2ccc(F)cc2)OCc2cc(C#N)ccc21 (stereo not shown) [citalopram]	10 to 200 ng/mL	
